This assay addresses T1, human Glu-plasminogen (Homo sapiens, UniProt P00747).
T1 construct: human Glu-plasminogen; purchased Chromogenix, Italy
Briefly: Clot-lysis buffer assay. It is filed as biochemical. The method, then:
The assay method used for evaluating biological activity of the compounds according to the invention was Clot-lysis buffer assay.
Tested substance were added to the reaction mixture in 10% DMSO. Reaction was started by the addition of thrombin.
Measured according to the Clot-lysis buffer assay described above.
T1 sequence (P00747 20-810 limits assumed): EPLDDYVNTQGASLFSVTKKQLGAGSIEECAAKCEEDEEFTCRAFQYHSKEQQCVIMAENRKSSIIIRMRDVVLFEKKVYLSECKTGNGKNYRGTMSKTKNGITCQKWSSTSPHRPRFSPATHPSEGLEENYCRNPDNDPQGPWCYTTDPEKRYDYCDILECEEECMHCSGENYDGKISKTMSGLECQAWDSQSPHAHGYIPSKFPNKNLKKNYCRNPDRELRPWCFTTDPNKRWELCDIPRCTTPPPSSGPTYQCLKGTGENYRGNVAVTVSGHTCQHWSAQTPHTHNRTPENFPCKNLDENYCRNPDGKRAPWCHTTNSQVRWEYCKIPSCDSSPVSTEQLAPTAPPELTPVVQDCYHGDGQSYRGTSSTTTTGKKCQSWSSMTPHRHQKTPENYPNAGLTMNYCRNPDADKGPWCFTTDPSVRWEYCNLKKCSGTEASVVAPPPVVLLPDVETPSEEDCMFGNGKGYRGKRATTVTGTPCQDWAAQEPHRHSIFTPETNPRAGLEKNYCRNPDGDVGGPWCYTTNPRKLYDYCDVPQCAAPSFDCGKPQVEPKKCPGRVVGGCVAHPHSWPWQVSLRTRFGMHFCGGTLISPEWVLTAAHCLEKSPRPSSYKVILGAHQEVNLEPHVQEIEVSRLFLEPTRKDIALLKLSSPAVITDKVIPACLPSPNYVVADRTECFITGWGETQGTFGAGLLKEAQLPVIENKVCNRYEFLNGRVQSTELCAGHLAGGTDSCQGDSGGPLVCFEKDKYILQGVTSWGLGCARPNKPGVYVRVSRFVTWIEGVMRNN
For the compound `O=c1cc([C@H]2CCN[C@@H](c3ccc(Cl)c(F)c3)C2)o[nH]1` [Example 49, 5-((2R,4S)-2-(4-Chloro-3-fluorophenyl)piperidin-4-yl)isoxazol-3(2H)-one], half-maximal inhibition (IC50) required 2 µM. This counts as single-digit micromolar. In the case of `O=c1cc([C@@H]2CCN[C@@H](c3ccc(Cl)cc3Cl)C2)o[nH]1` [Example 54, 5-((2R,4R)-2-(2,4-Dichlorophenyl)piperidin-4-yl)isoxazol-3(2H)-one] it was 372 µM; in that of `O=c1cc([C@@H]2CCN[C@@H](Cc3cc(F)cc(F)c3)C2)o[nH]1` [Example 133, 5-((2R,4R)-2-(3,5-Difluorobenzyl)piperidin-4-yl)isoxazol-3(2H)-one], 120 µM. Then `O=c1cc([C@@H]2CCN[C@@H](Cc3cccc(C(F)(F)F)c3)C2)o[nH]1` (relative stereo) [Example 109, 5-(Trans-2-(3-(trifluoromethyl)benzyl)piperidin-4-yl)isoxazol-3(2H)-one], with 5 µM; and `O=c1cc([C@H]2CCN[C@@H](c3cc(F)c(C(F)(F)F)c(F)c3)C2)o[nH]1` [Example 70, 5-((2R,4S)-2-(3,5-Difluoro-4-(trifluoromethyl)phenyl)piperidin-4-yl)isoxazol-3(2H)-one], with 2.5 µM; and `O=c1cc([C@@H]2CCN[C@@H](Cc3ccc(Cl)cc3)C2)o[nH]1` (relative stereo) [Example 116, 5-(Trans-2-(4-chlorobenzyl)piperidin-4-yl)isoxazol-3(2H)-one], with 5.6 µM. Then `O=c1cc([C@H]2CCN[C@@H](c3cc(F)c(Cl)c(F)c3)C2)o[nH]1` [Example 65, 5-((2R,4S)-2-(4-Chloro-3,5-difluorophenyl)piperidin-4-yl)isoxazol-3(2H)-one], with 2.2 µM; and `O=c1cc([C@@H]2CCN[C@H](c3cc(F)c(F)c(F)c3)C2)o[nH]1` [Example 61, 5-((2S,4R)-2-(3,4,5-Trifluorophenyl)piperidin-4-yl)isoxazol-3(2H)-one], with 858 µM. `O=c1cc([C@H]2CCN[C@@H](Cc3ccc(C(F)(F)F)cc3)C2)o[nH]1` [Example 104, 5-((2R,4S)-2-(4-(Trifluoromethyl)benzyl)piperidin-4-yl)isoxazol-3(2H)-one] came in with an IC50 of 1.5 µM. Compound `O=c1cc([C@@H]2CCN[C@@H](C(F)F)C2)o[nH]1` (relative stereo) [Example 88, 5-(Trans-2-(difluoromethyl)piperidin-4-yl)isoxazol-3(2H)-one] registered an IC50 of 31.2 µM. In the case of `Cn1nnnc1[C@H]1C[C@@H](c2cc(=O)[nH]o2)CCN1` [Example 83, 5-((2R,4S)-2-(1-Methyl-1H-tetrazol-5-yl)piperidin-4-yl)isoxazol-3(2H)-one] it was 42 µM; in that of `Cn1nnc([C@H]2C[C@@H](c3cc(=O)[nH]o3)CCN2)n1` [Example 81, 5-((2R,4S)-2-(2-Methyl-2H-tetrazol-5-yl)piperidin-4-yl)isoxazol-3(2H)-one], 1.6 µM; in that of `O=c1cc([C@H]2CCN[C@@H](Cc3ccc(F)cc3F)C2)o[nH]1` [Example 134, 5-((2R,4S)-2-(2,4-Difluorobenzyl)piperidin-4-yl)isoxazol-3(2H)-one], 0.85 µM. For `O=c1cc([C@H]2CCN[C@@H](c3ccc(C(F)(F)F)cc3)C2)o[nH]1` [Example 33, 5-((2R,4S)-2-(4-(Trifluoromethyl)phenyl)piperidin-4-yl)isoxazol-3(2H)-one], inhibition was half-maximal at 1.43 µM (IC50). Compound `O=c1cc([C@@H]2CCN[C@@H](c3cc(F)c(C(F)(F)F)c(F)c3)C2)o[nH]1` (relative stereo) [Example 71, 5-(Trans-2-(3,5-difluoro-4-(trifluoromethyl)phenyl)piperidin-4-yl)isoxazol-3(2H)-one] gave an IC50 of 11.6 µM. Consider `O=c1cc([C@@H]2CCN[C@@H](c3cc(F)c(Cl)c(F)c3)C2)o[nH]1` (relative stereo) [Example 66, 5-(Trans-2-(4-chloro-3,5-difluorophenyl)piperidin-4-yl)isoxazol-3(2H)-one], for which half-maximal inhibition (IC50) required 7.5 µM. `O=c1cc([C@@H]2CCN[C@@H](Cc3ccc(OC(F)(F)F)cc3)C2)o[nH]1` (relative stereo) [Example 114, 5-(Trans-2-(4-(trifluoromethoxy)benzyl)piperidin-4-yl)isoxazol-3(2H)-one] registered a half-inhibitory concentration (IC50) of 6.5 µM. Turning to `O=c1cc([C@H]2CCN[C@@H](c3cccc(C(F)(F)F)c3)C2)o[nH]1` [Example 30, 5-((2R,4S)-2-(3-(Trifluoromethyl)phenyl)piperidin-4-yl)isoxazol-3(2H)-one], inhibition was half-maximal at 0.7 µM (IC50). Compared with the last compound, the IC50 is about 9.3-fold lower.

Turning to `O=c1cc([C@H]2CCN[C@@H](Cc3ccc(Cl)cc3)C2)o[nH]1` [Example 115, 5-((2R,4S)-2-(4-Chlorobenzyl)piperidin-4-yl)isoxazol-3(2H)-one], half-maximal inhibition (IC50) required 0.8 µM. Then `O=c1cc([C@@H]2CCN[C@@H](Cc3ccccc3C(F)(F)F)C2)o[nH]1` (relative stereo) [Example 112, 5-(Trans-2-(2-(trifluoromethyl)benzyl)piperidin-4-yl)isoxazol-3(2H)-one], with 5.5 µM; and `CC(C)(C)c1ccc(C[C@@H]2C[C@@H](c3cc(=O)[nH]o3)CCN2)cc1` [Example 11, 5-((2S,4S)-2-(4-tert-Butylbenzyl)piperidin-4-yl)isoxazol-3(2H)-one], with 4.3 µM; and `O=c1cc([C@H]2CCN[C@H](c3ccc(Cl)cc3Cl)C2)o[nH]1` [Example 53, 5-((2S,4S)-2-(2,4-Dichlorophenyl)piperidin-4-yl)isoxazol-3(2H)-one], with 72.9 µM. In the case of `O=c1cc([C@@H]2CCN[C@H](Cc3ccc(F)cc3F)C2)o[nH]1` [Example 135, 5-((2S,4R)-2-(2,4-Difluorobenzyl)piperidin-4-yl)isoxazol-3(2H)-one] it was 69.1 µM; in that of `O=c1cc([C@H]2CCN[C@@H](c3ccc(F)c(F)c3)C2)o[nH]1` [Example 23, 5-((2R,4S)-2-(3,4-Difluorophenyl)piperidin-4-yl)isoxazol-3(2H)-one], 1 µM.

`O=c1cc([C@H]2CCN[C@@H](c3ccc(OC(F)(F)F)cc3F)C2)o[nH]1` [Example 58, 5-((2R,4S)-2-(2-Fluoro-4-(trifluoromethoxy)phenyl)piperidin-4-yl)isoxazol-3(2H)-one] had an IC50 of 2.1 µM. In the case of `O=c1cc([C@@H]2CCN[C@@H](c3ccc(F)cc3)C2)o[nH]1` (relative stereo) [Example 26, 5-(Trans-2-(4-fluorophenyl)piperidin-4-yl)isoxazol-3(2H)-one] it was 73.8 µM; in that of `O=c1cc([C@@H]2CCN[C@H](c3ccc(Cl)cc3)C2)o[nH]1` [Example 28, 5-((2S,4R)-2-(4-Chlorophenyl)piperidin-4-yl)isoxazol-3(2H)-one], 283 µM. Then `O=c1cc([C@H]2CCN[C@@H](C(F)F)C2)o[nH]1` [Example 87, 5-((2R,4S)-2-(Difluoromethyl)piperidin-4-yl)isoxazol-3(2H)-one], with 10.7 µM; and `O=c1cc([C@@H]2CCN[C@H](Cc3cc(F)cc(F)c3)C2)o[nH]1` [Example 131, 5-((2S,4R)-2-(3,5-Difluorobenzyl)piperidin-4-yl)isoxazol-3(2H)-one], with 128 µM; and `O=c1cc([C@@H]2CCN[C@@H](Cc3c(F)cccc3F)C2)o[nH]1` (relative stereo) [Example 129, 5-(Trans-2-(2,6-difluorobenzyl)piperidin-4-yl)isoxazol-3(2H)-one], with 10.2 µM.

The term IC50 denotes the concentration that gives 50% inhibition. The low end stands for inhibition by little substance, the high end for a need for much substance.

(Values after patent US8415378B2, “Isoxazol-3(2H)-one analogs as therapeutic agents” (AstraZeneca AB, priority 2009, dated 2013).)
